The values below come from patent US20190038556A1, “FORMULATIONS AND CARRIER SYSTEMS INCLUDING COMPOUND INTERACTIVE DOMAINS” (University of Pittsburgh - Of The Commonwealth System of …, priority 2012, published 2019).

Values after ≈ are worked out from the molar mass of the structure shown. Where two headings read alike, the source gives them in different places.

Series [1] in a line: Screening of protected amino acid derivatives as solubilizers and inhibitor of crystallization for JP4-039. Type of series: physicochemical. The procedure: In several studies, we compared a group of ε-Boc-lysine derivatives bearing various modifying groups on the α-NH2 position. […] FIG. 1 illustrates structures of various amino acid derivatives studied in solubility studies of JP4-039 in Table 3. […] In Table 3, the followings designations are used: U—Initially soluble but unstable after 5 min; V—forming vesicles; I—insoluble; and S—soluble.
1(b). Screening of protected amino acid derivatives as solubilizers and inhibitor of crystallization for JP4-039. α-acetyl-ε-Boc-lysine, α-iso-butoxycarbamoyl-ε-Boc-lysine were synthesized from α-NH2-ε-Boc-lysine (1 mmole) dissolved in 5 mL of saturated sodium bicarbonate solution by adding a 4-fold excess of acetyl anhydride or isobutyl chloroformate dissolved in 5 mL of THF over a period of 5 minutes, respectively. THF was removed from the reaction mixture, the remaining mixture was diluted with 50 mL of ethyl acetate. The organic phase was washed with 20 mL of saturated NaHCO3, saline, citric acid (0.5 M) and water sequentially. The organic phase was dried over anhydrous sodium sulfate, and the solvent was removed. The solid residues were recrystallized from ethyl acetate/hexanes mixture. These derivatives, together with a panel of commercially available amine protected derivatives of lysine, phenylalanine, and glycine were prepared as 1-100 mM solution or suspension in 0.1 M Na2HPO4 buffer. Meanwhile, 0.447 μg of JP4-039 dissolved in 5 μL of methanol was added to each well of a 96-well polystyrene plate. One hundred μL of amino acid solution/suspension were added to the methanol solution and mixed well. The physical status of the samples in each well was inspected visually for the physical appearance of brown crystals periodically over 2 h. Some samples were photographed under a microscope after 20 min.

The conditions of series [2]: for Physical form on hydration: 1 mg at 1 mg/ml. An excerpt: Additional representative studies of paclitaxel PTX loaded onto a carrier agent including only a hydrophilic segment, region or domain conjugated to a drug-interactive segment, region or domain are set forth below.
A further series is described as follows: physchem. An excerpt: The exact mechanism for the protection of ECGC against oxygen in the form of complex is unknown.
The nature of series [3]: Particle size measurement by laser dynamic light scattering. Type of series: physicochemical. The settings on record: for Size +/− SD: agent formulated with multi-chain PEGylated micelle-forming surfactant; for Particle Sizes w/o JP4-039: empty micelles. The method, then: 1(f). Particle size measurement. […] Samples were further diluted ten times in distilled water and sizes were measured by laser dynamic light scattering using a particle sizer (Zetasizer Nano ZS instrument, available from Malvern Instruments Ltd of Worcestershire, United Kingdom). Size measurement of emulsion particles were conducted using a Coulter N4 particle sizer after a 100-fold dilution in saline.

The nature of series [4]: Critical micelle concentration (Eosin Y red shift). Type of series: physicochemical. The procedure:
1(d). Critical micelle concentration (CMC). CMC was determined based on the red shift of the maximal absorption of Eosin Y when incorporated into more hydrophobic microenvironment in the core of micelle. Eosin Y solution was added to a final concentration of 1 mM to a series of surfactant solution prepared in distilled water and incubated for 30 minute at room temperature. OD542 nm was measured and plotted against surfactant concentration from which CMC values were estimated.

Series [5] in a line: PTX loading and formulation stability of PTX/PEG-Fmoc2 mixed micelles (HPLC). It is filed as physicochemical. The text has this: DLC (%)=[weight of drug used/(weight of polymer+drug used)]×100%
DLE (%)=(weight of loaded drug/weight of input drug)×100%
2(b)(iv). Preparation and biophysical characterization of PTX/PEG-Fmoc2 mixed micelles. Thin-film hydration method was utilized for preparation of PTX/PEG-Fmoc2 mixed nanomicelles. PEG-Fmoc2 and PTX in chloroform were well mixed in a glass tube at designated molar ratios. A thin film of carrier/drug mixture was generated through removal of the organic solvent by a gentle stream of nitrogen. The trace amount of solvent was further removed via vacuum for 2 h. Then the film was hydrated and suspended in DPBS by vortex to obtain a clear solution of PTX/PEG-Fmoc2 mixed nanomicelles. […]
The size distribution of PTX/PEG-Fmoc2 mixed nanomicelles was examined by dynamic light scattering (DLS) via a Malvern Zeta Nanosizer, and the morphology was observed by transmission electron microscopy (TEM) after negative staining. The CMC measurement was performed as reported before with pyrene as a fluorescence probe. To quantify PTX in the micelles, PTX was extracted by methanol, and detected by Waters Alliance 2695-2998 high-performance liquid chromatography (HPLC) system with a RP-18 column (250 mm×4.6 mm) equipped with a UV detector at 227 nm at room temperature. […] The drug loading capacity (DLC) and efficiency (DLE) were calculated as set forth above.

Where [6] appears, read: carrier Methoxy-PEG550-α-Fmoc-lysyl-ε-oleylamide (20 mg/ml).
Setting [7] is: aqueous with cosolvent or surfactant or cyclodextrin.

On to `CC(=O)N[C@@H](CCCCNC(=O)OCc1ccccc1)C(=O)O` [Ace-(Cbz)-Lys-OH], for which the “Solubility status of JP4-039 with amino acid derivative” value (from here on “Solubility status”) in series [1] (molar ratio 5) was “I”; in series [1] (molar ratio 10), “I”; in series [1] (molar ratio 20), “I”; in series [1] (molar ratio 30), “I”; in series [1] (molar ratio 40) it was “I”; in series [1] (molar ratio 50), “S”.

For `O=C(N[C@@H](Cc1ccccc1)C(=O)O)c1ccccc1` [Benz-Phe-OH], the “Solubility status” value in series [1] (molar ratio 5) was “I”; in series [1] (molar ratio 50), “S”.

Consider `CC(=O)NCCCC[C@H](NC(=O)OCc1ccccc1)C(=O)O` [CBz-(Ace)-Lys-OH], for which the “Solubility status” value in series [1] (molar ratio 5) is given as “I”; in series [1] (molar ratio 10) it was “I”; in series [1] (molar ratio 20), “I”; in series [1] (molar ratio 30), “I”; in series [1] (molar ratio 40), “I”; in series [1] (molar ratio 50), “S”.

With `CC(C)(C)OC(=O)NCCCC[C@H](NC(=O)OCc1ccccc1)C(=O)O` [Cbz-(tBoc)-Lys-OH], the “Solubility status” value in series [1] (molar ratio 5) was “I”; in series [1] (molar ratio 10), “I”; in series [1] (molar ratio 20), “I”; in series [1] (molar ratio 30), “I”; in series [1] (molar ratio 40) it was “S”; in series [1] (molar ratio 50), “S”.

Turning to `O=C(O)CCNC(=O)OCc1ccccc1` [Cbz-β-Ala-OH], the “Solubility status” value in series [1] (molar ratio 5), in series [1] (molar ratio 10), in series [1] (molar ratio 20), in series [1] (molar ratio 30), in series [1] (molar ratio 40) and in series [1] (molar ratio 50) was “I” in each case.

In the case of `COc1cc(/C=C/C(=O)CC(=O)/C=C/c2ccc(O)c(OC)c2)ccc1O` [Curcumin], the “Stability of suspension upon hydration” value in series [2] was ~1 h. Further, the “Physical form on hydration” value in series [2] (setting [6]) is “micelle solution”; in series [2] (carrier Methoxy-PEG1000-α-Fmoc-lysyl-ε-(α-Fmoc-ε-Boc lysine), 20 mg/ml) it was 1 mg at 1 mg/ml, viscous gel; in series [2] (carrier Methoxy-PEG1000-α-Fmoc-lysyl-ε-(α-Fmoc-ε-Boc lysine), 20 mg/ml, listed as curcumin), “suspension”.

For the compound `O=C(NCCCC[C@H](NC(=O)OCc1ccccc1)C(=O)O)OCc1ccccc1` [Di-(Cbz)-Lys-OH], the “Solubility status” value in series [1] (molar ratio 5) is reported as “I”; in series [1] (molar ratio 10) it was “I”; in series [1] (molar ratio 20), “S”; in series [1] (molar ratio 30) it was “S”; in series [1] (molar ratio 40) it was “S”; in series [1] (molar ratio 50), “S”.

As usually defined, the solubility is how much of the substance goes into solution per volume. High values mean much dissolved substance, low ones little dissolved substance. Turning to `C=CC[C@@H]1/C=C(\C)C[C@H](C)C[C@H](OC)[C@H]2O[C@@](O)(C(=O)C(=O)N3CCCC[C@H]3C(=O)O[C@H](/C(C)=C/[C@@H]3CC[C@@H](O)[C@H](OC)C3)[C@H](C)[C@@H](O)CC1=O)[C@H](C)C[C@@H]2OC` [FK506, tacrolimus], the “Drug:carrier mole ratio” value in “physchem” is recorded as 1:1 to 1:1.5. Besides, in “physchem” (setting [7]), the concentration in solution (solubility) was 2500 µg/mL (≈ 3110 µM). In addition, in series [3], the “Size +/− SD” value is given as 62.3 +/− 9 nm.

As for `CC(C)(C)OC(=O)NCCCC[C@H](NC(=O)OCC1c2ccccc2-c2ccccc21)C(=O)O` [Fmoc-(tBoc)-Lys-OH, α-Fmoc-ε-tBoc-lysine], the “Measured diameters of the majority of particles” value in series [3] (prepared in 0.1 M KHCO3) is reported as 2-5 nm. The “Solubility status” value in series [1] (molar ratio 5), in series [1] (molar ratio 10), in series [1] (molar ratio 20), in series [1] (molar ratio 30), in series [1] (molar ratio 40) and in series [1] (molar ratio 50) was “S” throughout.

Consider `CC(C)c1onc(-c2c(Cl)cccc2Cl)c1COc1ccc(/C=C/c2cccc(C(=O)O)c2)c(Cl)c1` [GW4064], for which, in “physchem”, the “Drug:carrier mole ratio” value is given as 2:1 to 1:1, the Soluble at is >5 mg/mL and the solubility was 0.002 µg/mL (≈ 0.00368 µM). Also, the “Size +/− SD” value in series [3] was 35.4 +/− 12 nm.

For the compound `COc1ccc2c(c1)c(CC(=O)O)c(C)n2C(=O)c1ccc(Cl)cc1` [Indomethacin], the “Physical form on hydration” value in series [2] (setting [6]) was “micelle solution”.

Take `O=C([O-])c1c(Cl)c(Cl)c(Cl)c(Cl)c1-c1c2cc(I)c(=O)c(I)c-2oc2c(I)c([O-])c(I)cc12.[Na+].[Na+]` [Rose Bengal]: in “physchem”, the “Drug:carrier mole ratio” value is reported as 2.5:1 to 2:1^, the Soluble at was >5 mg/mL and the solubility entry is “freely”. For the same compound, the “Size +/− SD” value in series [3] is 101.6 +/− 7 nm.

Take `CC/C(=C(\c1ccccc1)c1ccc(OCCN(C)C)cc1)c1ccccc1` [Tamoxifen]: in series [2], the “Stability of suspension upon hydration” value is ~1 h. In series [2] (setting [6]), the “Physical form on hydration” value is given as “micelle solution”.

Regarding `C=CC1=C(C)c2cc3[nH]c(cc4nc(cc5[nH]c(cc1n2)c(C)c5CCC(=O)O)C(CCC(=O)O)=C4C)c(C)c3C=C` [protoporphyrin IX], the “Drug:carrier mole ratio” value in “physchem” is reported as 1:6 to 1:10. Also, the values for the solubility in the series “physchem” and in the series “physchem” (setting [7]) were ~1 µg/mL (≈ 1.78 µM) and 500 µg/mL (≈ 889 µM), respectively.

Turning to `CC(C)(C)OC(=O)N[C@@H](CCCCNC(=O)OCc1ccccc1)C(=O)O` [tBoc-(Cbz)-Lys-OH], the “Solubility status” value in series [1] (molar ratio 5) is reported as “I”; in series [1] (molar ratio 10), “I”; in series [1] (molar ratio 20), “I”; in series [1] (molar ratio 30) it was “I”; in series [1] (molar ratio 40) it was “I”; in series [1] (molar ratio 50), “S”.

Take Isb-(Cbz)-Lys-OH: the “Solubility status” value in series [1] (molar ratio 5) is recorded as “I”; in series [1] (molar ratio 10), “S”; in series [1] (molar ratio 20), “S”; in series [1] (molar ratio 30) it was “S”; in series [1] (molar ratio 40) it was “S”; in series [1] (molar ratio 50), “S”.

Regarding “Monomethoxy PEG2,000-lysyl-(α-Fmoc-ε-oleoyl lysine)2 [lipopeptide 3]”, the “Particle Sizes w/JP4-039” value in series [3] (JP4-039 loaded micelles) is on record as 94.2 +/− 1.7 nm. Also, the “Particle Sizes w/o JP4-039” value in series [3] was 106.7 +/− 2.5 nm. For the same compound, in series [4], the CMC amounted to 4.2 µM.

For “Monomethoxy PEG2,000-α-Fmoc-ε-Oleoyl Lysine [lipopeptide 1]”, the CMC in series [4] was 5.0 µM.

Consider “Monomethoxy PEG5,000-lysyl-[lysyl-(α-Fmoc-ε-oleoyl lysine)2]2 [lipopeptide 4]”, for which the “Particle Sizes w/o JP4-039” value in series [3] was 132.1 +/− 8.5 nm. Besides, in series [4], the CMC is 3.4 µM.

“PEG5000-lysyl-(α-Fmoc-ε-oleic acid-lysine)2 [PEG-Fmoc-OA]”: the “Stability in solution at maximum PTX loading” value in series [5] is on record as “several hours”. For the same compound, the “PTX loading capacity (maximum)” value in series [5] (w/w, stable complexes in aqueous solution) was found to be 15%.
